The target in this test is T1, FimH proteins (Escherichia coli, UniProt Q1R2J4).
T1 construct: endogenous in cells; host or cells: UPEC strain UTI89 (whole bacteria)
The test can be described thus: hemagglutination inhibition (HAI) assay: UPEC UTI89 with guinea pig red blood cells. Type of test: cell-based, uropathogenic Escherichia coli (UPEC) UTI89. Conditions: read-out: HAI EC90 (minimum concentration for inhibiting hemagglutination). Here is the method: In the present example, the mannose derivatives A1 to A107 that were prepared in Examples 1 to 12 were analyzed in hemagglutination inhibition (HAI) assays to determine inhibitory effects of the compounds on the function/activity of FimH proteins.
1. Preparation of a guinea pig red blood cell solution: an adult guinea pig was anesthetized with ethyl ether, blood was sampled from the heart, placed in an EDTA blood collection tube, and centrifuged at 2,000 rpm for 5 min, serum was removed, the sample was transferred in a centrifuge tube (15 mL), sterilized PBS was added, the sample was centrifuged at 1,500 rpm for 10 min, a supernatant was removed, the sample was transferred in a centrifuge tube (50 mL), PBS was added, the sample was centrifuged at 1,500 rpm for 10 min and repeatedly washed twice, and red blood cells were slightly aspirated into a new centrifuge tube (50 mL) to obtain a 5% guinea pig red blood cell solution.
2. Preparation of a bacteria solution: a UPEC cell line UTI89 was inoculated on a medium plate and cultured in an incubator at 37° C. overnight. Single colonies were picked and inoculated in an LB medium in a sterilized conical flask, and cultured at 37° C. and 170 r/min overnight. When an OD value at 540 nm was about 0.8 on a microplate reader, the bacterial concentration was about 10^8-10^9 cfu/mL, the bacteria solution was centrifuged at 2,000 rpm for 10 min, a supernatant was removed, and 1 mL of bacteria solution was prepared into 0.1 mL of PBS bacteria solution. […] The bacteria and the medium were uniformly mixed by shaking, and reacted in an incubator at 25° C. for about 20-40 min. When the plate was read, the wells in which complete agglutination occurred were used as 4HAU for the hemagglutination titer of the bacteria. For example, if the endpoint titer of hemagglutination is 1:256, the dilution multiple of the 4HAU antigen is 1:64 (256 divided by 4). Bacteria solutions at corresponding concentrations were prepared according to the experimental results.
3. Activity assay: a compound to be tested or a standard product was placed in a 96-well microtest plate, 50 μL of drug at an initial concentration of 200 μM was placed in the first well, and from the second well, 25 μL of PBS was added to each well to dilute the drug in proportion. The drug and the medium in the first well were mixed, 25 μL of mixed drug solution was placed in the second well, the drug solution was diluted in sequence to the last well, and 25 μL of drug solution was removed. 25 μL of bacteria solution was placed in each well of the culture plate containing the diluted drug, and cultured at 37° C. for 40 min. 25 μL of 5% guinea pig red blood cell suspension was placed in each well, and slightly uniformly mixed with the drug, and the plate was placed at 4° C. for about 1 h. When results were determined, the plate was tilted 60°, and whether the red blood cells flowed like teardrops was observed.
Mannosyl proteins are expressed on the surface of red blood cells in a guinea pig, which can bind to FimH proteins of UTI89 to cause hemagglutination. It can be observed with the naked eyes that the red blood cells form film-like agglutination at the bottom of the well, and loose red dots can be seen in the center. The FimH protein inhibitor competitively binds to FimH proteins to inhibit hemagglutination. It can be observed with the naked eyes that all the red blood cells sink and concentrate at the bottom of the well to form dense dots. The minimum concentration for inhibiting hemagglutination is expressed as an EC90 value of a compound. The final concentration of the compound in the first well is 66700 nM, the concentration in the second well is half that in the first well, the concentration in the third well is half that in the second well, and so on. […] A low EC90 value indicates high activity of a compound.

Data on 47 compounds can be found in patent publication US11964996B2, “2-alkynylmannose derivative and application thereof” (priority 2020, dated 2024).

In the case of `CNC(=O)c1cccc(-c2ccc(O[C@H]3O[C@H](CO)[C@@H](O)[C@H](O)[C@@]3(O)C#Cc3ccccc3)c(C)c2)c1` [Compound A1], the EC90 was 8 nM.

On to `CNC(=O)c1cccc(-c2ccc(O[C@H]3O[C@H](CO)[C@@H](O)[C@H](O)[C@@]3(O)C#CC3CC3)c(C)c2)c1` [Compound A2], for which the EC90 amounted to 16 nM.

Turning to `CNC(=O)c1cccc(-c2ccc(O[C@H]3O[C@H](CO)[C@@H](O)[C@H](O)[C@@]3(O)C#Cc3cnn(C)c3)c(C)c2)c1` [Compound A3], the EC90 is 16 nM.

Regarding `Cc1cc(Br)ccc1O[C@H]1O[C@H](CO)[C@@H](O)[C@H](O)[C@@]1(O)C#Cc1ccccc1` [Compound A4], the EC90 is 1040 nM.

For the compound `Cc1ccccc1O[C@H]1O[C@H](CO)[C@@H](O)[C@H](O)[C@@]1(O)C#Cc1ccccc1` [Compound A5], the EC90 was 520 nM.

In the case of `CC(C)O[C@H]1O[C@H](CO)[C@@H](O)[C@H](O)[C@@]1(O)C#Cc1ccccc1` [Compound A6], the EC90 worked out at 1040 nM.

Consider `CCC(C)O[C@H]1O[C@H](CO)[C@@H](O)[C@H](O)[C@@]1(O)C#Cc1ccccc1` (some centres unmarked) [Compound A7], for which the EC90 was determined as 260 nM.

For `CC(C)C(C)O[C@H]1O[C@H](CO)[C@@H](O)[C@H](O)[C@@]1(O)C#Cc1ccccc1` (some centres unmarked) [Compound A8], the EC90 turned out to be 260 nM.

As for `CCC(CC)O[C@H]1O[C@H](CO)[C@@H](O)[C@H](O)[C@@]1(O)C#Cc1ccccc1` [Compound A9], the EC90 was found to be 130 nM.

Turning to `OC[C@H]1O[C@H](C#Cc2cnn(-c3ccc(OC(F)(F)F)cc3)c2)[C@](O)(C#CC2CC2)[C@@H](O)[C@@H]1O` [Compound A10], the EC90 came to 0.13 nM.

As for `OC[C@H]1O[C@H](OC2CCCC2)[C@](O)(C#Cc2ccccc2)[C@@H](O)[C@@H]1O` [Compound A11], the EC90 was 520 nM.

With `OC[C@H]1O[C@H](OC2CCCCC2)[C@](O)(C#Cc2ccccc2)[C@@H](O)[C@@H]1O` [Compound A12], the EC90 amounted to 260 nM.

Take `OC[C@H]1O[C@H](OC2CCC(F)(F)CC2)[C@](O)(C#Cc2ccccc2)[C@@H](O)[C@@H]1O` [Compound A13]: the EC90 was 1040 nM.

Take `C#C[C@H]1O[C@H](CO)[C@@H](O)[C@H](O)[C@@]1(O)C#Cc1ccccc1` [Compound A14]: the EC90 came out at 4160 nM.

As to `CC#C[C@H]1O[C@H](CO)[C@@H](O)[C@H](O)[C@@]1(O)C#Cc1ccccc1` [Compound A15], the EC90 amounted to 520 nM.

`OC[C@H]1O[C@H](C#CC2CC2)[C@](O)(C#Cc2ccccc2)[C@@H](O)[C@@H]1O` [Compound A16]: the EC90 turned out to be 130 nM.

As for `OC[C@H]1O[C@H](C#Cc2ccccc2)[C@](O)(C#Cc2ccccc2)[C@@H](O)[C@@H]1O` [Compound A17], the EC90 is 130 nM.

Regarding `Cc1cccc(C#C[C@@]2(O)[C@@H](C#Cc3ccccc3)O[C@H](CO)[C@@H](O)[C@@H]2O)c1` [Compound A18], the EC90 was 260 nM.

For `CC(C)c1cccc(C#C[C@@]2(O)[C@@H](C#Cc3ccccc3)O[C@H](CO)[C@@H](O)[C@@H]2O)c1` [Compound A19], the EC90 came out at 520 nM.

For the compound `OC[C@H]1O[C@H](C#Cc2ccccc2)[C@](O)(C#Cc2cccc(C3CC3)c2)[C@@H](O)[C@@H]1O` [Compound A20], the EC90 came out at 260 nM.

Consider `CC(C)Oc1cccc(C#C[C@@]2(O)[C@@H](C#Cc3ccccc3)O[C@H](CO)[C@@H](O)[C@@H]2O)c1` [Compound A21], for which the EC90 came out at 260 nM.

As for `CS(=O)(=O)c1cccc(C#C[C@@]2(O)[C@@H](C#Cc3ccccc3)O[C@H](CO)[C@@H](O)[C@@H]2O)c1` [Compound A22], the EC90 came out at 130 nM.

As for `CC(C)n1cc(C#C[C@@]2(O)[C@@H](C#Cc3ccccc3)O[C@H](CO)[C@@H](O)[C@@H]2O)ccc1=O` [Compound A23], the EC90 is 260 nM.

As for `OC[C@H]1O[C@H](C#Cc2ccccc2)[C@](O)(C#Cc2cccc3ccccc23)[C@@H](O)[C@@H]1O` [Compound A24], the EC90 amounted to 260 nM.

Take `Cc1cccc(C#C[C@H]2O[C@H](CO)[C@@H](O)[C@H](O)[C@@]2(O)C#Cc2ccccc2)c1` [Compound A25]: the EC90 was found to be 260 nM.

In the case of `CC(C)c1cccc(C#C[C@H]2O[C@H](CO)[C@@H](O)[C@H](O)[C@@]2(O)C#Cc2ccccc2)c1` [Compound A26], the EC90 amounted to 130 nM.

As for `CC(C)Oc1cccc(C#C[C@H]2O[C@H](CO)[C@@H](O)[C@H](O)[C@@]2(O)C#Cc2ccccc2)c1` [Compound A27], the EC90 came out at 130 nM.

As to `OC[C@H]1O[C@H](C#Cc2cccc(C(F)(F)F)c2)[C@](O)(C#Cc2ccccc2)[C@@H](O)[C@@H]1O` [Compound A28], the EC90 amounted to 260 nM.

Turning to `OC[C@H]1O[C@H](C#Cc2cccc3ccccc23)[C@](O)(C#Cc2ccccc2)[C@@H](O)[C@@H]1O` [Compound A29], the EC90 turned out to be 520 nM.

`OC[C@H]1O[C@H](C#Cc2ccc3ccccc3c2)[C@](O)(C#Cc2ccccc2)[C@@H](O)[C@@H]1O` [Compound A30]: the EC90 came to 1040 nM.

`OC[C@H]1O[C@H](C#Cc2cnn(-c3ccc(OCC4CC4)cc3)c2)[C@](O)(C#CC2CC2)[C@@H](O)[C@@H]1O` [Compound A31]: the EC90 is below 0.1 nM.

`OC[C@H]1O[C@H](C#Cc2cccc(-c3ccccc3)c2)[C@](O)(C#Cc2ccccc2)[C@@H](O)[C@@H]1O` [Compound A32]: the EC90 worked out at 130 nM.

In the case of `CC(C)n1cc(C#C[C@H]2O[C@H](CO)[C@@H](O)[C@H](O)[C@@]2(O)C#Cc2ccccc2)ccc1=O` [Compound A33], the EC90 turned out to be 8 nM.

For the compound `Cn1cc(C#C[C@H]2O[C@H](CO)[C@@H](O)[C@H](O)[C@@]2(O)C#Cc2ccccc2)cn1` [Compound A34], the EC90 came out at 64 nM.

As for `Cn1ncc(C#C[C@H]2O[C@H](CO)[C@@H](O)[C@H](O)[C@@]2(O)C#Cc2ccccc2)c1Cl` [Compound A35], the EC90 amounted to 520 nM.

As to `Cc1c(C#C[C@H]2O[C@H](CO)[C@@H](O)[C@H](O)[C@@]2(O)C#Cc2ccccc2)cnn1C` [Compound A36], the EC90 turned out to be 260 nM.

With `Cc1nn(C)cc1C#C[C@H]1O[C@H](CO)[C@@H](O)[C@H](O)[C@@]1(O)C#Cc1ccccc1` [Compound A38], the EC90 came out at 260 nM.

Regarding `CC(C)n1cc(C#C[C@H]2O[C@H](CO)[C@@H](O)[C@H](O)[C@@]2(O)C#Cc2ccccc2)cn1` [Compound A39], the EC90 stood at 8 nM.

As for `CCn1cc(C#C[C@H]2O[C@H](CO)[C@@H](O)[C@H](O)[C@@]2(O)C#Cc2ccccc2)cn1` [Compound A40], the EC90 was 32 nM.

As to `CCC(C)n1cc(C#C[C@H]2O[C@H](CO)[C@@H](O)[C@H](O)[C@@]2(O)C#Cc2ccccc2)cn1` (some centres unmarked) [Compound A41], the EC90 was found to be 8 nM.

As to `OC[C@H]1O[C@H](C#Cc2cnn(CC3CC3)c2)[C@](O)(C#Cc2ccccc2)[C@@H](O)[C@@H]1O` [Compound A42], the EC90 was found to be 4 nM.

As to `OC[C@H]1O[C@H](C#Cc2cnn(Cc3ccccc3)c2)[C@](O)(C#Cc2ccccc2)[C@@H](O)[C@@H]1O` [Compound A43], the EC90 amounted to 32 nM.

Consider `OC[C@H]1O[C@H](C#Cc2cnn(C3CCC3)c2)[C@](O)(C#Cc2ccccc2)[C@@H](O)[C@@H]1O` [Compound A44], for which the EC90 was determined as 8 nM.

For `OC[C@H]1O[C@H](C#Cc2cnn(C3CCCC3)c2)[C@](O)(C#Cc2ccccc2)[C@@H](O)[C@@H]1O` [Compound A45], the EC90 worked out at 1 nM.

Turning to `OC[C@H]1O[C@H](C#Cc2cnn(C3CCCCC3)c2)[C@](O)(C#Cc2ccccc2)[C@@H](O)[C@@H]1O` [Compound A46], the EC90 was 0.5 nM.

Regarding `OC[C@H]1O[C@H](C#Cc2cnn(-c3ccccc3)c2)[C@](O)(C#Cc2ccccc2)[C@@H](O)[C@@H]1O` [Compound A47], the EC90 was found to be 0.25 nM.

For the compound `OC[C@H]1O[C@H](C#Cc2cnn(-c3ccccc3Cl)c2)[C@](O)(C#Cc2ccccc2)[C@@H](O)[C@@H]1O` [Compound A48], the EC90 was found to be 1 nM.
